Laboratory results: US8278345B2, “Inhibitors of glutaminyl cyclase” (Probiodrug AG, priority 2006, dated 2012)

The molecules below were run against hQC (Homo sapiens, UniProt Q16769) (assay: Inhibitor assay for glutaminyl cyclase activity (fluorometric, H-Gln-βNA / H-Gln-AMC)). Conditions: compound from preparative synthesis, purified.
Type: biochemical
Summary of the method: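 Coupled fluorometric assay at 30 °C with pyroglutamyl aminopeptidase, in Tris/HCl pH 8.0 with EDTA, substrate H-Gln-βNA (0.2 mM; ex/em 320/410 nm) or H-Gln-AMC (ex/em 380/460 nm), initiated by QC. Screening: 4 mM inhibitor, substrate at 1 KM; Ki from progress curves fitted to competitive inhibition.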

hQC, sequence (Q16769 29-361): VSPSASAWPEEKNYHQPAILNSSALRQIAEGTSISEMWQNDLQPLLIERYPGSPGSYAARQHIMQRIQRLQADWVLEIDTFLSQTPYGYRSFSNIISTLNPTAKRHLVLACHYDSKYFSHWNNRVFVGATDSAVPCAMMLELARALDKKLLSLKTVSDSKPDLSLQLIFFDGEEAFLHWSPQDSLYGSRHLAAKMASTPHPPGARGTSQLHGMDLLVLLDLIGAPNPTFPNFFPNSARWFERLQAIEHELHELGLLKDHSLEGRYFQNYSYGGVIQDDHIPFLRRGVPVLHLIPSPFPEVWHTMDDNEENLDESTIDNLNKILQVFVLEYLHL

| Ki | Compound |
| --- | --- |
| 11.6 nM | CC1=C(O)C(=O)N(c2ccc3nc[nH]c3c2)C1c1cccc(F)c1F (stereo not shown) [Compound 467, 1-(1H-benzo[d]imidazol-6-yl)-5-(2,3-difluorophenyl)-3-hydroxy-4-methyl-1H-pyrrol-2(5H)-one] |

Same assay, conditions: read-out: IC50

| Compound | IC50 |
| --- | --- |
| CCC1=C(O)C(=O)N(c2ccc3[nH]cnc3c2)C1c1cc(C)ccc1O (stereo not shown) [Compound 282, 1-(1H-Benzoimidazol-5-yl)-4-ethyl-3-hydroxy-5-(2-hydroxy-5-methyl-phenyl)-1,5-dihydro-pyrrol-2-one] | 670 nM |
| CC(=O)C1=C(O)C(=O)N(c2ccc3[nH]cnc3c2)C1c1ccc(C(=O)O)o1 (stereo not shown) [Compound 410, 5-[3-Acetyl-1-(1H-benzoimidazol-5-yl)-4-hydroxy-5-oxo-2,5-dihydro-1H-pyrrol-2-yl]-furan-2-carboxylic acid] | 1030 nM |
| CC(=O)C1=C(O)C(=O)N(c2ccc3[nH]cnc3c2)C1c1cc(Br)c(O)c(Br)c1 (stereo not shown) [Compound 414, 4-Acetyl-1-(1H-benzoimidazol-5-yl)-5-(3,5-dibromo-4-hydroxy-phenyl)-3-hydroxy-1,5-dihydro-pyrrol-2-one] | 2380 nM |
| CC(=O)C1=C(O)C(=O)N(c2ccc3[nH]cnc3c2)C1C1=CCCCC1 (stereo not shown) [Compound 312, 4-Acetyl-1-(1H-benzoimidazol-5-yl)-5-cyclohex-1-enyl-3-hydroxy-1,5-dihydro-pyrrol-2-one] | 1840 nM |
| CC(C)(C)C(=O)C1=C(O)C(=O)N(c2ccc3[nH]cnc3c2)C1c1c(F)c(F)cc(F)c1F (stereo not shown) [Compound 442, 1-(1H-Benzoimidazol-5-yl)-4-(2,2-dimethyl-propionyl)-3-hydroxy-5-(2,3,5,6-tetrafluoro-phenyl)-1,5-dihydro-pyrrol-2-one] | 8590 nM |
| CCC1=C(O)C(=O)N(c2ccc3[nH]cnc3c2)C1c1c(F)ccc(Cl)c1F (stereo not shown) [Compound 290, 1-(1H-Benzoimidazol-5-yl)-5-(3-chloro-2,6-difluoro-phenyl)-4-ethyl-3-hydroxy-1,5-dihydro-pyrrol-2-one] | 3820 nM |
| Cc1cc(C2C(C(=O)C3CC3)=C(O)C(=O)N2c2ccc3[nH]cnc3c2)cc(C)c1O (stereo not shown) [Compound 342, 1-(1H-Benzoimidazol-5-yl)-4-cyclopropanecarbonyl-3-hydroxy-5-(4-hydroxy-3,5-dimethyl-phenyl)-1,5-dihydro-pyrrol-2-one] | 310 nM |
| O=C1C(O)=C(c2ccc(O)cc2)C(c2cccc3cccnc23)N1c1ccc2[nH]cnc2c1 (stereo not shown) [Compound 364, 1-(1H-Benzoimidazol-5-yl)-3-hydroxy-4-(4-hydroxy-phenyl)-5-quinolin-8-yl-1,5-dihydro-pyrrol-2-one] | 5080 nM |
| O=C(C1=C(O)C(=O)N(c2ccc3[nH]cnc3c2)C1c1ncc[nH]1)C1CCCCC1 (stereo not shown) [Compound 435, 1-(1H-Benzoimidazol-5-yl)-4-cyclohexanecarbonyl-3-hydroxy-5-(1H-imidazol-2-yl)-1,5-dihydro-pyrrol-2-one] | 6970 nM |
| O=C(O)CC1=C(O)C(=O)N(c2ccc3[nH]cnc3c2)C1c1cccc(F)c1 (stereo not shown) [Compound 311, [1-(1H-Benzoimidazol-5-yl)-2-(3-fluoro-phenyl)-4-hydroxy-5-oxo-2,5-dihydro-1H-pyrrol-3-yl]-acetic acid] | 4540 nM |
| O=C(O)c1ccc(C2C(C(=O)C3CCCCC3)=C(O)C(=O)N2c2ccc3[nH]cnc3c2)o1 (stereo not shown) [Compound 374, 5-[1-(1H-Benzoimidazol-5-yl)-3-cyclohexanecarbonyl-4-hydroxy-5-oxo-2,5-dihydro-1H-pyrrol-2-yl]-furan-2-carboxylic acid] | 760 nM |
| CCCCCC(=O)C1=C(O)C(=O)N(c2ccc3[nH]cnc3c2)C1CC (stereo not shown) [Compound 463, 1-(1H-Benzoimidazol-5-yl)-5-ethyl-4-hexanoyl-3-hydroxy-1,5-dihydro-pyrrol-2-one] | 4000 nM |
| CC(C)C1=C(O)C(=O)N(c2ccc3[nH]cnc3c2)C1c1cc(F)cc(F)c1F (stereo not shown) [Compound 253, 1-(1H-Benzoimidazol-5-yl)-3-hydroxy-4-isopropyl-5-(2,3,5-trifluoro-phenyl)-1,5-dihydro-pyrrol-2-one] | 1300 nM |

Further lines, results first:

| IC50 | Compound |
| --- | --- |
| 2200 nM | CC1=C(O)C(=O)N(CCCn2ccnc2)C1c1ccccn1 (stereo not shown) [Compound 43, 3-Hydroxy-1-(3-imidazol-1-yl-propyl)-4-methyl-5-pyridin-2-yl-1,5-dihydro-pyrrol-2-one] |
| 2200 nM | CC1=C(O)C(=O)N(CCCn2ccnc2)C1C1CCC=CO1 (stereo not shown) [Compound 35, 5-(3,4-Dihydro-2H-pyran-2-yl)-3-hydroxy-1-(3-imidazol-1-yl-propyl)-4-methyl-1,5-dihydro-pyrrol-2-one] |
| 4900 nM | O=C1C(O)=C(c2ccccc2)C(C2=CCCCC2)N1CCCn1ccnc1 (stereo not shown) [Compound 94, 5-Cyclohex-1-enyl-3-hydroxy-1-(3-imidazol-1-yl-propyl)-4-phenyl-1,5-dihydro-pyrrol-2-one] |
| 40 nM | CCC1=C(O)C(=O)N(CCCn2ccnc2)C1c1ccc2[nH]ccc2c1 (stereo not shown) [Compound 228, 4-Ethyl-3-hydroxy-1-(3-imidazol-1-yl-propyl)-5-(1H-indol-5-yl)-1,5-dihydro-pyrrol-2-one] |
| 400 nM | CCCCCC1=C(O)C(=O)N(CCCn2ccnc2)C1C1CC1 (stereo not shown) [Compound 212, 5-Cyclopropyl-3-hydroxy-1-(3-imidazol-1-yl-propyl)-4-pentyl-1,5-dihydro-pyrrol-2-one] |
| 400 nM | CC(=O)C1=C(O)C(=O)N(c2ccc3[nH]cnc3c2)C1c1cccc(C)c1 (stereo not shown) [Compound 283, 4-Acetyl-1-(1H-benzoimidazol-5-yl)-3-hydroxy-5-m-tolyl-1,5-dihydro-pyrrol-2-one] |
| 1300 nM | CC1=C(O)C(=O)N(CCCn2ccnc2)C1c1cccc(O)c1 (stereo not shown) [Compound 53, 3-Hydroxy-5-(3-hydroxy-phenyl)-1-(3-imidazol-1-yl-propyl)-4-methyl-1,5-dihydro-pyrrol-2-one] |
| 52.6 nM | CC1=C(O)C(=O)N(c2ccc3nc[nH]c3c2)C1c1cccc(F)c1F (stereo not shown) [Compound 467, 1-(1H-benzo[d]imidazol-6-yl)-5-(2,3-difluorophenyl)-3-hydroxy-4-methyl-1H-pyrrol-2(5H)-one] |
| 1300 nM | Cc1ccc2c(C3C(c4c[nH]c5ccccc45)=C(O)C(=O)N3CCCn3ccnc3)c[nH]c2c1 (stereo not shown) [Compound 130, 3-Hydroxy-1-(3-imidazol-1-yl-propyl)-4-(1H-indol-3-yl)-5-(6-methyl-1H-indol-3-yl)-1,5-dihydro-pyrrol-2-one] |
| 40 nM | O=C1C(O)=C(c2ccccc2)C(c2cc(Cl)cc(Cl)c2O)N1CCCn1ccnc1 (stereo not shown) [Compound 76, 5-(3,5-Dichloro-2-hydroxy-phenyl)-3-hydroxy-1-(3-imidazol-1-yl-propyl)-4-phenyl-1,5-dihydro-pyrrol-2-one] |
| 5800 nM | CCC/C=C/C1C(c2cccc(O)c2)=C(O)C(=O)N1CCCn1ccnc1 (stereo not shown) [Compound 6, 3-Hydroxy-4-(3-hydroxy-phenyl)-1-(3-imidazol-1-yl-propyl)-5-(pent-1-enyl)-1,5-dihydro-pyrrol-2-one] |
| 490 nM | CC1=C(O)C(=O)N(c2ccc3[nH]cnc3c2)C1c1c[nH]c2cc(C)ccc12 (stereo not shown) [Compound 436, 1-(1H-Benzoimidazol-5-yl)-3-hydroxy-4-methyl-5-(6-methyl-1H-indol-3-yl)-1,5-dihydro-pyrrol-2-one] |
| 400 nM | O=C1C(O)=C(c2ccc(O)cc2)C(C(F)(F)F)N1CCCn1ccnc1 (stereo not shown) [Compound 166, 3-Hydroxy-4-(4-hydroxy-phenyl)-1-(3-imidazol-1-yl-propyl)-5-trifluoromethyl-1,5-dihydro-pyrrol-2-one] |
| 40 nM | CCC1=C(O)C(=O)N(CCCn2ccnc2)C1C(F)(F)F (stereo not shown) [Compound 240, 4-Ethyl-3-hydroxy-1-(3-imidazol-1-yl-propyl)-5-trifluoromethyl-1,5-dihydro-pyrrol-2-one] |
